Among the data in ChEMBL document CHEMBL3044935, “Synthesis and in vitro microbiological evaluation of novel 2,4-diaryl-3-azabicyclo[3.3.1]nonan-9,5-spiro-1,2,4-triazolidine-3-thiones” (2012) are MIC values, retold here.

Holding throughout (type): functional
The subject of one assay is Nannizzia gypsea. Nature of the assay: Antimicrobial activity against Microsporum gypseum after 72 to 96 hr by two-fold serial dilution method.
The subject of the next assay is Rhizopus. As to the kind of experiment: Antimicrobial activity against Rhizopus after 72 to 96 hr by two-fold serial dilution method.
For a further assay, the system named is Mucor. As to the kind of experiment: Antimicrobial activity against Mucor after 72 to 96 hr by two-fold serial dilution method.
A further assay concerns Aspergillus flavus. Nature of the assay: Antimicrobial activity against Aspergillus flavus after 72 to 96 hr by two-fold serial dilution method.
The next assay relates to Klebsiella pneumoniae. Nature of the assay: Antimicrobial activity against Klebsiella pneumoniae after 24 hr by two-fold serial dilution method.
Another assay relates to Escherichia coli. Nature of the assay: Antimicrobial activity against Escherichia coli after 24 hr by two-fold serial dilution method.
A further assay relates to Shigella flexneri. As to the kind of experiment: Antimicrobial activity against Shigella flexneri after 24 hr by two-fold serial dilution method.
The test system of the next assay is Vibrio cholerae. Nature of the assay: Antimicrobial activity against Vibrio cholerae after 24 hr by two-fold serial dilution method.
For a further assay, the system named is Salmonella typhi. As to the kind of experiment: Antimicrobial activity against Salmonella enterica subsp. enterica serovar Typhi after 24 hr by two-fold serial dilution method.
In the next assay the test system is Streptococcus. Nature of the assay: Antimicrobial activity against beta-hemolytic Streptococcus after 24 hr by two-fold serial dilution method.
In the next assay the test system is Staphylococcus aureus. As to the kind of experiment: Antimicrobial activity against Staphylococcus aureus after 24 hr by two-fold serial dilution method.

Converted amounts (≈) assume the structure as drawn.

For `COc1ccc(C2NC(c3ccc(OC)cc3)C3CCCC2C32NNC(=S)N2)cc1` (stereo not drawn), the MIC – broadly, the smallest concentration in the dilution series that meets the test's criterion for growth inhibition – with Nannizzia gypsea was found to be 50 µg/mL (≈ 118 µM); with Rhizopus, 25 µg/mL (≈ 58.9 µM); with Mucor, 50 µg/mL (≈ 118 µM); against Aspergillus flavus it was 100 µg/mL (≈ 236 µM); against Klebsiella pneumoniae, 12.5 µg/mL (≈ 29.4 µM); with Escherichia coli, 100 µg/mL (≈ 236 µM). Further, the MIC is 25 µg/mL (≈ 58.9 µM) against Shigella flexneri; 50 µg/mL (≈ 118 µM) against Vibrio cholerae; 200 µg/mL (≈ 471 µM) against Salmonella typhi; 100 µg/mL (≈ 236 µM) in the assay on Streptococcus; 100 µg/mL (≈ 236 µM) in the assay on Staphylococcus aureus.
On to `S=C1NNC2(N1)C1CCCC2C(c2ccccc2)NC1c1ccccc1` (stereo not drawn), for which the minimum inhibitory concentration (MIC) against Nannizzia gypsea was determined as 200 µg/mL (≈ 549 µM); in the assay on Rhizopus, 200 µg/mL (≈ 549 µM); in the assay with Mucor, 200 µg/mL (≈ 549 µM); with Aspergillus flavus it was 100 µg/mL (≈ 274 µM); in the assay with Klebsiella pneumoniae, 100 µg/mL (≈ 274 µM); against Escherichia coli, 200 µg/mL (≈ 549 µM). Besides, the MIC in the assay on Shigella flexneri worked out at 100 µg/mL (≈ 274 µM); in the assay on Vibrio cholerae, 50 µg/mL (≈ 137 µM); against Salmonella typhi, 50 µg/mL (≈ 137 µM); with Streptococcus it was 100 µg/mL (≈ 274 µM); in the assay on Staphylococcus aureus, 100 µg/mL (≈ 274 µM).
In the case of `Fc1ccc(C2NC(c3ccc(F)cc3)C3CCCC2C32NNC(=S)N2)cc1` (stereo not drawn), the MIC in the assay on Nannizzia gypsea came out at 6.25 µg/mL (≈ 15.6 µM); with Rhizopus it was 12.5 µg/mL (≈ 31.2 µM); against Mucor it was 100 µg/mL (≈ 250 µM); with Aspergillus flavus, 6.25 µg/mL (≈ 15.6 µM); in the assay with Klebsiella pneumoniae, 6.25 µg/mL (≈ 15.6 µM); against Escherichia coli it was 100 µg/mL (≈ 250 µM). The MIC against Shigella flexneri worked out at 50 µg/mL (≈ 125 µM); against Vibrio cholerae, 12.5 µg/mL (≈ 31.2 µM); in the assay with Salmonella typhi, 100 µg/mL (≈ 250 µM); in the assay on Streptococcus, 12.5 µg/mL (≈ 31.2 µM); in the assay on Staphylococcus aureus, 6.25 µg/mL (≈ 15.6 µM).
For `S=C1NNC2(N1)C1CCCC2C(c2ccc(Cl)cc2)NC1c1ccc(Cl)cc1` (stereo not drawn), the MIC is 12.5 µg/mL (≈ 28.8 µM) in the assay on Nannizzia gypsea; 25 µg/mL (≈ 57.7 µM) against Rhizopus; 12.5 µg/mL (≈ 28.8 µM) in the assay with Mucor; 12.5 µg/mL (≈ 28.8 µM) in the assay on Aspergillus flavus; 100 µg/mL (≈ 231 µM) against Klebsiella pneumoniae; 12.5 µg/mL (≈ 28.8 µM) with Escherichia coli. Besides, the minimal inhibitory concentration (MIC) against Shigella flexneri amounted to 100 µg/mL (≈ 231 µM); against Vibrio cholerae it was 25 µg/mL (≈ 57.7 µM); in the assay with Salmonella typhi, 12.5 µg/mL (≈ 28.8 µM); against Streptococcus, 50 µg/mL (≈ 115 µM); in the assay on Staphylococcus aureus it was 12.5 µg/mL (≈ 28.8 µM).
For the molecule `S=C1NNC2(N1)C1CCCC2C(c2ccc(Br)cc2)NC1c1ccc(Br)cc1` (stereo not drawn), the minimum inhibitory concentration (MIC) in the assay on Nannizzia gypsea was 25 µg/mL (≈ 47.9 µM); in the assay on Rhizopus, 12.5 µg/mL (≈ 23.9 µM); in the assay on Mucor, 12.5 µg/mL (≈ 23.9 µM); in the assay on Aspergillus flavus, 6.25 µg/mL (≈ 12 µM); in the assay with Klebsiella pneumoniae it was 100 µg/mL (≈ 191 µM); against Escherichia coli, 100 µg/mL (≈ 191 µM). Moreover, the minimal inhibitory concentration (MIC) turned out to be 50 µg/mL (≈ 95.7 µM) against Shigella flexneri; 25 µg/mL (≈ 47.9 µM) with Vibrio cholerae; 12.5 µg/mL (≈ 23.9 µM) against Salmonella typhi; 6.25 µg/mL (≈ 12 µM) against Streptococcus; 12.5 µg/mL (≈ 23.9 µM) against Staphylococcus aureus.
As for `O=[N+]([O-])c1ccc(C2NC(c3ccc([N+](=O)[O-])cc3)C3CCCC2C32NNC(=S)N2)cc1` (stereo not drawn), the MIC with Nannizzia gypsea was found to be 12.5 µg/mL (≈ 27.5 µM); against Rhizopus it was 12.5 µg/mL (≈ 27.5 µM); against Mucor, 25 µg/mL (≈ 55 µM); against Aspergillus flavus it was 25 µg/mL (≈ 55 µM); with Klebsiella pneumoniae, 50 µg/mL (≈ 110 µM); against Escherichia coli, 100 µg/mL (≈ 220 µM). The MIC against Shigella flexneri is 50 µg/mL (≈ 110 µM); in the assay on Vibrio cholerae, 25 µg/mL (≈ 55 µM); in the assay with Salmonella typhi it was 100 µg/mL (≈ 220 µM); in the assay on Streptococcus, 12.5 µg/mL (≈ 27.5 µM); against Staphylococcus aureus it was 12.5 µg/mL (≈ 27.5 µM).
Take `Cc1ccc(C2NC(c3ccc(C)cc3)C3CCCC2C32NNC(=S)N2)cc1` (stereo not drawn): the MIC in the assay with Nannizzia gypsea was 50 µg/mL (≈ 127 µM); against Rhizopus it was 50 µg/mL (≈ 127 µM); in the assay with Mucor, 100 µg/mL (≈ 255 µM); against Aspergillus flavus, 200 µg/mL (≈ 509 µM); against Klebsiella pneumoniae, 200 µg/mL (≈ 509 µM); against Escherichia coli, 200 µg/mL (≈ 509 µM). In addition, the MIC against Shigella flexneri worked out at 200 µg/mL (≈ 509 µM); in the assay with Vibrio cholerae, 50 µg/mL (≈ 127 µM); in the assay with Salmonella typhi, 50 µg/mL (≈ 127 µM); in the assay with Streptococcus, 50 µg/mL (≈ 127 µM); in the assay with Staphylococcus aureus it was 50 µg/mL (≈ 127 µM).
In the case of `O=C(O)c1cn(C2CC2)c2cc(N3CCNCC3)c(F)cc2c1=O` [CIPROFLOXACIN], the minimal inhibitory concentration (MIC) stood at 12.5 µg/mL (≈ 37.7 µM) with Klebsiella pneumoniae; 25 µg/mL (≈ 75.4 µM) in the assay with Escherichia coli; 25 µg/mL (≈ 75.4 µM) against Shigella flexneri; 25 µg/mL (≈ 75.4 µM) in the assay on Vibrio cholerae; 25 µg/mL (≈ 75.4 µM) against Salmonella typhi; 12.5 µg/mL (≈ 37.7 µM) against Streptococcus. For the same molecule, the MIC in the assay with Staphylococcus aureus was found to be 12.5 µg/mL (≈ 37.7 µM).
Take `OC(Cn1cncn1)(Cn1cncn1)c1ccc(F)cc1F` [FLUCONAZOLE]: the MIC came to 12.5 µg/mL (≈ 40.8 µM) with Nannizzia gypsea, 25 µg/mL (≈ 81.6 µM) against Rhizopus, 12.5 µg/mL (≈ 40.8 µM) with Mucor and 25 µg/mL (≈ 81.6 µM) against Aspergillus flavus.
